Assays:
Assay in all cases: In vitro percent disease control (radii of spore growth on agar)
Format in all cases: cell-based
[1] = system: Botryosphaeria dothidea Macrophoma sp.; conditions: Botryosphaeria dothidea, read-out: % controlled, Bo.do (Ma.)
Method: (§1) The compounds of this invention were dissolved respectively in acetone in an amount equal to 10% of the final volume and then in purified water at the concentration of 100 ppm and 50 ppm.
(§2) Each of the solution was mixed with potato-sucrose-agar medium in a 6" petri dish and one of the fungi was spotted at the center of the dish. The dish was incubated in growth room for several days. The percent disease control was derived from the radii of spore growth. The screening tests in vitro condition are well-known to those skilled in the art.
(§3) The following fungi were used for the screening.
4) Bo.do(Ma); Botryosphaeria dothidea Macrophoma sp.

Glomerella cingulata = conditions: Colletotrichum gloeosporioides, read-out: % controlled, Glo.
Method: as §1, §2, §3
5) Glo.; Glomerella cingulata

Alternaria mali = conditions: Alternaria mali, read-out: % controlled, Al.
Method: as §1, §2, §3

Rhizopus sp. = conditions: Rhizopus, read-out: % controlled, Rhi. sp.
Method: as §1, §2, §3

Physalospora baccae = conditions: read-out: % controlled, Phy ba.
Method: as §1, §2, §3
3) Phy. ba.; Physalospora baccae

Botry tris cinerea = conditions: read-out: % controlled, Bo ci.
Method: as §1, §2, §3
10) Bo.ci.; Botry tris cinerea

Pyricalaria oryzae = conditions: for inhibition of growth at 50 ppm: read-out: % controlled, Py. or., 50 ppm; for inhibition of growth at 100 ppm: read-out: % controlled, Py. or., 100 ppm
Method: as §1, §2, §3
6) Py.or.; Pyricalaria oryzae

Phytophthora capsisi = conditions: Phytophthora, read-out: % controlled, Phy ca.
Method: as §1, §2, §3
2) Phy. ca.; Phytophthora capsisi

Rhizoctonia solani = conditions: Rhizoctonia solani, read-out: % controlled, Rhy. so.
Method: as §1, §2, §3
7) Rhi.so.; Rhizoctonia solani

Fusarium moniliforme = system: Fusarium moniliforme
Method: as §1, §2, §3
8) Fu.mo.; Fusarium moniliforme

Structure (SMILES) | inhibition of growth at 50 ppm [1] | inhibition of growth at 100 ppm [1] | inhibition of growth at 50 ppm (Glomerella cingulata) | inhibition of growth at 100 ppm (Glomerella cingulata) | inhibition of growth at 50 ppm (Alternaria mali) | inhibition of growth at 100 ppm (Alternaria mali) | inhibition of growth at 50 ppm (Rhizopus sp.) | inhibition of growth at 100 ppm (Rhizopus sp.) | inhibition of growth at 50 ppm (Physalospora baccae) | inhibition of growth at 100 ppm (Physalospora baccae) | inhibition of growth at 50 ppm (Botry tris cinerea) | inhibition of growth at 100 ppm (Botry tris cinerea) | inhibition of growth at 50 ppm (Pyricalaria oryzae) | inhibition of growth at 100 ppm (Pyricalaria oryzae) | inhibition of growth at 50 ppm (Phytophthora capsisi) | inhibition of growth at 100 ppm (Phytophthora capsisi) | inhibition of growth at 50 ppm (Rhizoctonia solani) | inhibition of growth at 100 ppm (Rhizoctonia solani) | % controlled, Fu. mo. (Fusarium moniliforme; 50 ppm) | % controlled, Fu. mo. (Fusarium moniliforme; 100 ppm)
CCOc1ccc([Si](Cn2cncn2)(C[Si](C)(C)c2ccc(F)cc2)c2ccc(OCC)cc2)cc1 [2,2-bis(4-ethoxyphenyl)-4-(4-fluorophenyl)-4-methyl-2,4-disila-1-(1H-1,2,4-triazol-1-yl)pentane] | 74% | 78% | 71% | 77% | 63% | 72% | 19% | 43% | 53% | 74% | 69% | 66% | 100% | 100% | 50% | 60% | 78% | 78% | 58% | 63%
C=CC[Si](C[Si](C)(Cn1cncn1)c1ccc(OCC)cc1)(c1ccccc1)c1ccc(-c2ccccc2)cc1 (stereo not drawn) [6-(4-ethoxyphenyl)-6-methyl-4-phenyl-4-(4-phenylphenyl-4,6-disila-7-(1H-1,2,4-triazol-1-yl)-1-heptane] | 100% | 100% | 80% | 90% | 100% | 100% | 75% | 75% | 100% | 100% | 80% | 85% | 75% | 85% | 60% | 70% | 100% | 100% | 80% | 80%
C[Si](C)(C[Si](C)(Cn1cncn1)c1ccc(Cl)cc1)c1ccc(F)cc1 (stereo not drawn) [2-(4-chlorophenyl)-4-(4-fluorophenyl)-2,4-dimethyl-2,4-disila-1-(1H-1,2,4-triazol-1-yl)pentane] | 43% | 43% | 67% | 73% | 38% | 38% | 18% | 20% | 20% | 20% | 13% | 18% | 46% | 48% | 0% | 0% | 31% | 50% | 34% | 58%
C=CC[Si](C)(Cn1cncn1)C[Si](CC=C)(c1ccccc1)c1ccccc1 (stereo not drawn) [6,6-diphenyl-4-methyl-4,6-disila-4-(1H-1,2,4-triazol-1-ylmethyl)-1,8-nonadiene] | 80% | 100% | 89% | 100% | 72% | 89% | 50% | 100% | 84% | 100% | 77% | 100% | 100% | 100% | 33% | 40% | 80% | 100% | 60% | 100%
C[Si](C)(C[Si](Cn1cncn1)(c1ccc(Cl)cc1)c1ccc(Cl)cc1)c1ccc(F)cc1 [2,2-bis(4-chlorophenyl)-4-(4-fluorophenyl)-4-methyl-2,4-disila-1-(1H-1,2,4-triazol-1-yl)pentane] | 54% | 61% | 0% | 0% | 51% | 58% | 26% | 32% | 44% | 48% | 37% | 53% | 57% | 57% | 6% | 9% | 43% | 77% | 41% | 55%
C=CC[Si](C)(Cn1cncn1)C[Si](CC=C)(CC=C)c1ccc(F)cc1 (stereo not drawn) [6-(4-fluorophenyl)-4-methyl-6-(2-propenyl)-4,6-disila-4-(1H-1,2,4-triazol-1-ylmethyl)-1,8-nonadiene] | 79% | 90% | 82% | 85% | 78% | 90% | 56% | 58% | 90% | 95% | 90% | 95% | 100% | 100% | 55% | 60% | 96% | 96% | 60% | 60%
C[Si](C)(C)C[Si](Cn1cncn1)(c1ccc(Cl)cc1)c1ccc(Cl)cc1 [2,2-bis(4-chlorophenyl)-4,4-dimethyl-2,4-disila-1-(1H-1,2,4-triazol-1-yl)pentane] | 70% | 72% | 83% | 89% | 75% | 79% | 51% | 54% | 90% | 100% | 67% | 85% | 90% | 95% | 28% | 34% | 56% | 66% | 46% | 65%
C[Si](C)(C[Si](C)(Cn1cncn1)c1ccc(F)cc1)c1ccc(Cl)cc1 (stereo not drawn) [4-(4-chlorophenyl)-2-(4-fluorophenyl)-2,4-dimethyl-2,4-disila-1-(1H-1,2,4-triazol-1-yl)pentane] | 74% | 86% | 0% | 0% | 84% | 84% | 59% | 65% | 78% | 82% | 100% | 100% | 100% | 100% | 43% | 54% | 93% | 100% | 67% | 69%
C[Si](C)(Cc1ccc(F)cc1)C[Si](C)(Cn1cncn1)c1ccc(F)cc1 (stereo not drawn) [4-(4-fluorobenzyl)-2-(4-fluorophenyl)-2,4-dimethyl-2,4-disila-1-(1H-1,2,4-triazol-1-yl)pentane] | 40% | 49% | 0% | 0% | 38% | 43% | 21% | 24% | 26% | 30% | 0% | 0% | 50% | 57% | 3% | 3% | 36% | 36% | 34% | 41%

Source: patent US5235061A, “Fungicidal (1H-1,2,4-triazolyl)disilaalkanes” (priority 1991, dated 1993)
